In patent US20200339691A1, “PROTEINACEOUS MOLECULES AND USES THEREFOR” (priority 2018, published 2020):
Where a SMILES comes first, the peptide text is derived from it. The star is where a group is joined. Myristoyl = CCCCCCCCCCCCCC(=O)*

How the values were obtained:
MDA-MB-231 cells = assay type: cell-based, human; settings: for killing of total MDA-MB-231 cells: not only the CSCs
Text: (§1) Non-adherent cells were removed during the washing steps.

MCF7 cells = test system: MCF7 cells
Procedure: (§2) P1 Analogues were synthesized in accordance with the procedure of Example 5. 4×10^4 MDA-MB-231 cells or 1×10^4 induced or non-induced MCF7 cells were seeded in a 12 well plate with 1 mL complete media overnight. Induced MCF7 cells were prepared by stimulating cells with PMA/TGF-β and incubating for 12 hours. Cells were treated with 50 μM test peptide (dissolved in water) for 48 hours. Cells were then washed twice with 1 mL PBS and harvested by trypsinisation. Non-adherent cells were removed during the washing steps. Adherent cells were collected, and were subsequently stained with anti-human CD44, CD24 and Hoechst 33342 antibodies on ice for 30 mins. FACS was performed on BD FACS LSRII to measure the percentage of CD44^hiCD24^lo CSCs by dividing CD44^hiCD24^lo events by total live cell counts (Hoechst negative population) (as described in Fillmore and Kuperwasser (2007) Breast Cancer Res, 9: 303). The percentage of viable cells was calculated by dividing total live cell events by total single cells as described previously (Siemann and Keng (1986), Cancer Res, 46: 3556-3559).

[1] = test system: CD44^hiCD24^lo CSCs in MDA-MB-231 cells; assay: FACS analysis of CD44^hiCD24^lo cancer stem cells in MDA-MB-231 cells treated with P1 analogues; assay type: cell-based, human; settings: for Inhibition of CSCs (%) Repeat 1 / Inhibition of CSCs (%) Repeat 2 / Inhibition of CSCs (%) Repeat 3 / CD44^hiCD24^lo CSCs (%) / COI, Live Single CD44^hiCD24^lo CSCs (Cell Count) / Average Inhibition of CSCs (%) / CD44^hiCD24^lo CSCs (%) Repeat 1 / CD44^hiCD24^lo CSCs (%) Repeat 2 / CD44^hiCD24^lo CSCs (%) Repeat 3: 50 μM peptide, 48 hours; for CD44^hiCD24^lo CSCs (%) / COI, Live Single CD44^hiCD24^lo CSCs (Cell Count): n = 1; for Average Inhibition of CSCs (%) / CD44^hiCD24^lo CSCs (%) Repeat 1 / CD44^hiCD24^lo CSCs (%) Repeat 2 / CD44^hiCD24^lo CSCs (%) Repeat 3: n = 3
Procedure: Analogues of P1 (Table 6) were designed and synthesized in accordance with the procedure of Example 5. The ability of these analogues to inhibit cancer stem cells was determined using FACS analysis on MDA-MB-231 cells, which constitutively contain approximately 90% CD44^hiCD24^lo cancer stem cells, treated with the peptides.
as §1

induced MCF7 cells = assay: FACS CSC inhibition in induced MCF7 cells; assay type: cell-based, human; settings: induced MCF7 cells (PMA/TGF-β), 50 μM peptide, 48 hours
Procedure: as §2

[2] = test system: CD44^hiCD24^lo CSCs in MCF7 cells; assay: FACS analysis of CD44^hiCD24^lo CSCs in MCF7 cells; assay type: cell-based, human; settings: 50 μM peptide, 48 hours
Procedure: as §2

[3] = MCF7 cells, 50 μM peptide, 48 hours
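For COI, Live Single Cells (Cell Count) in this document: live means Hoechst-negative events among single cells.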

SMILES	COI (Cell Count) (MDA-MB-231 cells; 50 μM peptide, 48 hours, n = 1)	COI, Live Single Cells (Cell Count) (MDA-MB-231 cells; 50 μM peptide, 48 hours, n = 1)	COI, Single (Cell Count) (MDA-MB-231 cells; 50 μM peptide, 48 hours, n = 1)	Total Cell Count (MDA-MB-231 cells; 50 μM peptide, 48 hours, n = 1)	killing of total MDA-MB-231 cells (MDA-MB-231 cells)	COI Count (MCF7 cells; [3])	COI/Single Cell Count (MCF7 cells; [3])	COI/Single Cells/Live Count (MCF7 cells; [3])	Total Count (MCF7 cells; [3])	Inhibition of CSCs (%) Repeat 1 [1] [%]	Inhibition of CSCs (%) Repeat 2 [1] [%]	Inhibition of CSCs (%) Repeat 3 [1] [%]	CD44^hiCD24^lo CSCs (%) [1] [%]	COI, Live Single CD44^hiCD24^lo CSCs (Cell Count) [1]	Average Inhibition of CSCs (%) [1] [%]	CD44^hiCD24^lo CSCs (%) Repeat 1 [1] [%]	CD44^hiCD24^lo CSCs (%) Repeat 2 [1] [%]	CD44^hiCD24^lo CSCs (%) Repeat 3 [1] [%]	CSC inhibition (%) (induced MCF7 cells)	CD44^hiCD24^lo CSC % [2] [%]	further results
CCCCCCCCCCCCCC(=O)N[C@H](C(=O)N[C@@H](Cc1ccccc1)C(=O)N[C@H](C(=O)N[C@@H](Cc1ccccc1)C(=O)N[C@@H](CCCNC(=N)N)C(=O)N[C@@H](CC(C)C)C(=O)N[C@@H](CCCNC(=N)N)C(=O)N[C@@H](CCCCN)C(=O)NCC(=O)N[C@@H](CCCNC(=N)N)C(=O)N[C@@H](CCSC)C(=O)N[C@@H](CCSC)C(=O)N[C@@H](C)C(=O)N[C@H](C(=O)N[C@@H](CCCCN)C(=O)N[C@@H](CCCCN)C(N)=O)C(C)C)[C@@H](C)CC)[C@@H](C)O [Peptide 2815314, Myristoyl-TFIFRLRKGRMMAVKK-NH2] (Myristoyl-TFIFRLRKGRMMAVKK-NH2)	10	2	9	5611	killed the majority of the total MDA-MB-231 cells	6564	5443	5276	10000	100.00	100.00	100.00	0.00	0	100.00	0.00	0.00	0.00	61.00%	2.75	COI/Single Cells/Live/CD44^hiCD24^lo CSCs Count [2]: 145
CCCCCCCCCCCCCC(=O)N[C@@H](CC(C)C)C(=O)N[C@@H](CCCCN)C(=O)N[C@@H](Cc1ccccc1)C(=O)N[C@H](C(=O)N[C@@H](Cc1ccccc1)C(=O)N[C@@H](CCCNC(=N)N)C(=O)N[C@@H](CC(C)C)C(=O)N[C@@H](CCCNC(=N)N)C(=O)N[C@@H](CCCCN)C(=O)NCC(=O)N[C@@H](CCCNC(=N)N)C(=O)N[C@@H](CCSC)C(=O)N[C@@H](CCSC)C(=O)N[C@@H](CC(=O)O)C(=O)N[C@H](C(=O)N[C@@H](CCCCN)C(=O)N[C@@H](CCCCN)C(N)=O)C(C)C)[C@@H](C)CC [Peptide 2853805, Myristoyl-LKFIFRLRKGRMMDVKK-NH2] (Myristoyl-LKFIFRLRKGRMMDVKK-NH2)	52	1	32	3221	killed the majority of the total MDA-MB-231 cells	5356	4637	4320	10000	100.00	100.00	100.00	0.00	0	100.00	0.00	0.00	0.00	64.52%	2.50	COI/Single Cells/Live/CD44^hiCD24^lo CSCs Count [2]: 108
CCCCCCCCCCCCCC(=O)N[C@H](C(=O)N[C@@H](Cc1ccccc1)C(=O)N[C@H](C(=O)N[C@@H](Cc1ccccc1)C(=O)N[C@@H](CCCNC(=N)N)C(=O)N[C@@H](CC(C)C)C(=O)N[C@@H](CCCNC(=N)N)C(=O)N[C@@H](C)C(=O)NCC(=O)N[C@@H](CCCNC(=N)N)C(=O)N[C@@H](CCSC)C(=O)N[C@@H](CCSC)C(=O)N[C@@H](CC(=O)O)C(=O)N[C@H](C(=O)N[C@@H](CCCCN)C(=O)N[C@@H](CCCCN)C(N)=O)C(C)C)[C@@H](C)CC)[C@@H](C)O [Peptide 2815309, Myristoyl-TFIFRLRAGRMMDVKK-NH2] (Myristoyl-TFIFRLRAGRMMDVKK-NH2)	74	1	71	4158	killed the majority of the total MDA-MB-231 cells	5425	4124	4000	10000	100.00	100.00	100.00	0.00	1	100.00	0.00	0.00	0.00	52.46%	3.35	ability to inhibit cancer stem cells (CD44^hiCD24^lo CSCs) ([1]; in words): retained the ability to inhibit cancer stem cells; COI/Single Cells/Live/CD44^hiCD24^lo CSCs Count [2]: 134
CCCCCCCCCCCCCC(=O)N[C@@H](CC(C)C)C(=O)N[C@H](C(=O)N[C@@H](Cc1ccccc1)C(=O)N[C@H](C(=O)N[C@@H](Cc1ccccc1)C(=O)N[C@@H](CCCNC(=N)N)C(=O)N[C@@H](CC(C)C)C(=O)N[C@@H](CC(C)C)C(=O)N[C@@H](CCCCN)C(=O)NCC(=O)N[C@@H](CCCNC(=N)N)C(=O)N[C@@H](CCSC)C(=O)N[C@@H](CCSC)C(=O)N[C@@H](CC(=O)O)C(=O)N[C@H](C(=O)N[C@@H](CCCCN)C(=O)N[C@@H](CCCCN)C(N)=O)C(C)C)[C@@H](C)CC)[C@@H](C)O [Peptide 2853825, Myristoyl-LTFIFRLLKGRMMDVKK-NH2] (Myristoyl-LTFIFRLLKGRMMDVKK-NH2)	18	0	15	1583	killed the majority of the total MDA-MB-231 cells	72	35	0	10000	100.00	100.00	100.00	0.00	0	100.00	0.00	0.00	0.00	Cytotoxic	0.00	Viable Cells (%) (MDA-MB-231 cells; 50 μM peptide, 48 hours, n = 1): 0.00%; cytotoxicity to MCF7 cells (MCF7 cells): cytotoxic; % Viable Cells (MCF7 cells; [3]): 0.00%; COI/Single Cells/Live/CD44^hiCD24^lo CSCs Count [2]: 0
CCCCCCCCCCCCCC(=O)N[C@@H](CC(C)C)C(=O)N[C@H](C(=O)N[C@@H](Cc1ccccc1)C(=O)N[C@H](C(=O)N[C@@H](CC(C)C)C(=O)N[C@@H](CCCNC(=N)N)C(=O)N[C@@H](CC(C)C)C(=O)N[C@@H](CCCNC(=N)N)C(=O)N[C@@H](CCCCN)C(=O)NCC(=O)N[C@@H](CCCNC(=N)N)C(=O)N[C@@H](CCSC)C(=O)N[C@@H](CCSC)C(=O)N[C@@H](CC(=O)O)C(=O)N[C@H](C(=O)N[C@@H](CCCCN)C(=O)N[C@@H](CCCCN)C(N)=O)C(C)C)[C@@H](C)CC)[C@@H](C)O [Peptide 2853816, Myristoyl-LTFILRLRKGRMMDVKK-NH2] (Myristoyl-LTFILRLRKGRMMDVKK-NH2)	160	96	130	1747	–	–	–	–	–	69.57	68.04	65.42	12.50	12	67.68	27.27	28.67	31.03	–	–	–
